Experimental data reported in ChEMBL document CHEMBL1130819, “Synthesis and biological evaluation of 1,2-disubstituted carbonucleosides of 2-amino-6-substituted purine and 8-azapurine” (Bioorg Med Chem Lett, 1998).
≈ marks a conversion by molar mass, not a printed value.

Assays:
MOLT-4 = assay: Antitumor activity was evaluated against Molt4/C8 cell line; type: functional, cell-based; settings: Homo sapiens
L1210 = assay: Antitumor activity was evaluated against L1210 cell line; type: functional, cell-based; settings: Mus musculus
CCRF-CEM = assay: Antitumor activity was evaluated against CEM cell line; type: functional, cell-based; settings: Homo sapiens
Human alphaherpesvirus 3 [1] = assay: Antiviral activity against Varicella-Zoster virus(YS/R strain); type: functional, organism-based
Human alphaherpesvirus 3 [2] = assay: Antiviral activity against Varicella-Zoster virus(OKA strain); type: functional, organism-based
Human alphaherpesvirus 3 [3] = assay: Antiviral activity against Varicella-Zoster virus (07/1strain); type: functional, organism-based

Row | SMILES | IC50 (MOLT-4) [µM] | IC50 (L1210) [µM] | IC50 (CCRF-CEM) [µM] | EC50 (Human alphaherpesvirus 3 [1]) [mg/L] | EC50 (Human alphaherpesvirus 3 [2]) [mg/L] | EC50 (Human alphaherpesvirus 3 [3]) [mg/L]
1 | Nc1nc(N)c2ncn([C@H]3CCC[C@H]3CO)c2n1 | 147 | 113 | 90 | 37 (≈ 149 µM) | – | –
2 | Nc1nc(N)c2nnn([C@H]3CCC[C@H]3CO)c2n1 | 120 | 77.2 | 90.5 | 50 (≈ 201 µM) | 32 (≈ 128 µM) | 45 (≈ 181 µM)
3 | Nc1nc(O)c2ncn([C@H]3CCC[C@H]3CO)c2n1 | > 200 | > 200 | > 200 | – | – | –

These reach a lower IC50 (MOLT-4). Values come first.

Row | IC50 (MOLT-4) [µM] | IC50 (L1210) [µM] | IC50 (CCRF-CEM) [µM] | EC50 (Human alphaherpesvirus 3 [1]) [mg/L] | EC50 (Human alphaherpesvirus 3 [2]) [mg/L] | EC50 (Human alphaherpesvirus 3 [3]) [mg/L] | SMILES
4 | 86 | 80 | 86.7 | – | – | – | Nc1nc(O)c2nnn([C@H]3CCC[C@H]3CO)c2n1
5 | 75.3 | 71 | 53 | – | – | – | Nc1nc(Cl)c2nnn([C@H]3CCC[C@H]3CO)c2n1
6 | 49.1 | 71.4 | 83 | – | – | – | Nc1nc(Cl)c2ncn([C@H]3CCC[C@H]3CO)c2n1
